Assay results: publication PMC9409066, “Functional Characterization of the Venus Flytrap Domain of the Human TAS1R2 Sweet Taste Receptor” (International Journal of Molecular Sciences, 2022)
Residue numbers refer to the chain shown, from its start. Where two headings read alike, the source gives them in different places. Marks after values point to notes of the source that are not given here. Residues, ends and D or L forms follow the SMILES beside them.

Columns and labels:
[1] = target: T1, hTAS1R2-VFT (Homo sapiens, UniProt Q8TE23); assay: Intrinsic tryptophan fluorescence ligand binding, hTAS1R2-VFT
T1 construct: followed by hTAS1R2-VFT (Ala22-Ser493) and another His6-tag at the C-terminus; His6 (thrombin-cleavable) (N); made in house
T1 sequence (Q8TE23 22-493): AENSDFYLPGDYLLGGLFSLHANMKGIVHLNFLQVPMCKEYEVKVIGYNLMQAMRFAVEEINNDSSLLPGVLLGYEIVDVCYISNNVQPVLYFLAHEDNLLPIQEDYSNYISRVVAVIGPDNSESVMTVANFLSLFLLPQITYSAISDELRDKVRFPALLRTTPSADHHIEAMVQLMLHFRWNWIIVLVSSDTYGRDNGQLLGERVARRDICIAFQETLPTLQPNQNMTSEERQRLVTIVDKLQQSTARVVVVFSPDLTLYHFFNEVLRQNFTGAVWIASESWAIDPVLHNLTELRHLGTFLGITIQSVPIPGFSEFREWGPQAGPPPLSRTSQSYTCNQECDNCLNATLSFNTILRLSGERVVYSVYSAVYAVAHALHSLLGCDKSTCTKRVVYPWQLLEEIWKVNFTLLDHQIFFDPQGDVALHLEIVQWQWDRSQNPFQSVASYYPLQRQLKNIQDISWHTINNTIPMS
From the text: Therefore, we tested the binding affinity of hTAS1R2-VFT using an intrinsic tryptophan fluorescence assay. This approach allows one to measure protein–ligand interactions by measuring the fluorescence emitted by tryptophan residues upon the titration of sweet ligands. This technique is very sensitive to changes in the local environment of fluorescent amino acid residues within a protein and has been used to measure protein–ligand binding interactions with mouse, human and cat TAS1R-VFTs. For this purpose, we determined the concentration response relationships for the intrinsic tryptophan fluorescence of hTAS1R2-VFT upon the addition of various sweet compounds.
Figure 4 Binding properties of hTAS1R2-VFT assessed by intrinsic tryptophan fluorescence. Titration curves of hTAS1R2-VFT were generated with natural sugars (pink circles) or sweeteners (blue circles). Circles show experimental data, while the solid lines are the computed binding curves; excitation and emission wavelengths were 295 nm and 340 nm, respectively; hTAS1R2-VFT concentration, 0.5 µM. Data points correspond to the means ± SEMs of at least 12 independent replicates of at least three independently refolded protein samples, except for glucose, 6 independent replicates over three independently refolded protein samples.
All measurements were conducted at 20 °C using a Cary Eclipse spectrofluorimeter (Agilent Technologies, Santa Clara, CA, USA) equipped with a Peltier temperature control unit with a 5 nm bandwidth for emission and excitation. Ligand binding experiments with 0.5 µM hTAS1R2-VFTs were performed in buffer composed of 50 mM Tris-HCl pH 8, 150 mM NaCl, 0.5 mM DDM and 1 mM DTT. The intrinsic fluorescence of hTAS1R2-VFTs was measured at an excitation wavelength of 295 nm, and emission spectra were recorded from 320 to 380 nm. Fluorescence emission values were collected at 340 nm wavelength in the presence and absence of sweet ligands. A range of ligand concentrations were freshly prepared in 50 mM Tris-HCl pH 8.0. For titration experiments, successive 0.4 µL aliquots of sweeteners were added to 400 µL of hTAS1R2-VFT solution. Fluorescence measurements were corrected for bleaching, dilution and nonspecific buffer quenching. The dissociation constants (Kd) were calculated from a plot of the ratio between the fluorescence intensity variation and the maximum fluorescence intensity variation (ΔF/ΔFmax) versus the concentration of the total ligand. Assuming that the binding of hTAS1R2-VFT to sweet compounds is described by a one-site binding model, the Kd values of ligand–receptor interactions were determined with a standard nonlinear regression method using SigmaPlot 12.5 software (Systat Software, Inc., San Jose, CA, USA) as previously described. For each ligand, the experiment was repeated on at least twelve cells over at least three different batches of refolded hTAS1R2-VFT.

[2] = tested on: human panels; settings: molar basis, cited from earlier work
[3] = tested on: full-length hTAS1R2/hTAS1R3 receptor E382A; parameters: method as in PMID 22536376; settings: cellular assays; cited from earlier work
[4] = target: T2, human TAS1R2/TAS1R3 receptor (Homo sapiens, UniProt Q7RTX0+Q8TE23); settings: cellular assays, cited from earlier work
T2 sequence (Q8TE23 20-839): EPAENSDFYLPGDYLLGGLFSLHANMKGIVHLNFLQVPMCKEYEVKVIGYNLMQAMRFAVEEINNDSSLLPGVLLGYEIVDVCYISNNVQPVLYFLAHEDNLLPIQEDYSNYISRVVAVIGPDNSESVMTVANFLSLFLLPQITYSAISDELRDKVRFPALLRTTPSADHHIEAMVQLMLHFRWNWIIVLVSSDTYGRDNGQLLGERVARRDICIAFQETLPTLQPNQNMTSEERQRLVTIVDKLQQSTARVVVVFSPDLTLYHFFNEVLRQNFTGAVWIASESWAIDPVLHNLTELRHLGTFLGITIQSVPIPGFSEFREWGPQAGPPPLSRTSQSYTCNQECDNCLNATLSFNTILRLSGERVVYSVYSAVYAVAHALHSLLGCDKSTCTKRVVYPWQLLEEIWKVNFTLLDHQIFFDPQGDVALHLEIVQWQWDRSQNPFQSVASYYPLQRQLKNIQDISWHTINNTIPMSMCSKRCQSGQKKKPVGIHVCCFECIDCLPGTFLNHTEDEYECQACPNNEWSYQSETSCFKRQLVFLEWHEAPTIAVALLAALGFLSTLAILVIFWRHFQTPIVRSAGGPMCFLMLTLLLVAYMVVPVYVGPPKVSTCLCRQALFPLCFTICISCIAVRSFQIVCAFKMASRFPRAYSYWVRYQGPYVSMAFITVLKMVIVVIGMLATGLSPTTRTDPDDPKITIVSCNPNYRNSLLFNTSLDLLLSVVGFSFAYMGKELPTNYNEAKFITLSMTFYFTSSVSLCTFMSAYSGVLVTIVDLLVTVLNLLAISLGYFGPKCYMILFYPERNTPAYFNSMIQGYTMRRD
T2 sequence (Q7RTX0 21-852): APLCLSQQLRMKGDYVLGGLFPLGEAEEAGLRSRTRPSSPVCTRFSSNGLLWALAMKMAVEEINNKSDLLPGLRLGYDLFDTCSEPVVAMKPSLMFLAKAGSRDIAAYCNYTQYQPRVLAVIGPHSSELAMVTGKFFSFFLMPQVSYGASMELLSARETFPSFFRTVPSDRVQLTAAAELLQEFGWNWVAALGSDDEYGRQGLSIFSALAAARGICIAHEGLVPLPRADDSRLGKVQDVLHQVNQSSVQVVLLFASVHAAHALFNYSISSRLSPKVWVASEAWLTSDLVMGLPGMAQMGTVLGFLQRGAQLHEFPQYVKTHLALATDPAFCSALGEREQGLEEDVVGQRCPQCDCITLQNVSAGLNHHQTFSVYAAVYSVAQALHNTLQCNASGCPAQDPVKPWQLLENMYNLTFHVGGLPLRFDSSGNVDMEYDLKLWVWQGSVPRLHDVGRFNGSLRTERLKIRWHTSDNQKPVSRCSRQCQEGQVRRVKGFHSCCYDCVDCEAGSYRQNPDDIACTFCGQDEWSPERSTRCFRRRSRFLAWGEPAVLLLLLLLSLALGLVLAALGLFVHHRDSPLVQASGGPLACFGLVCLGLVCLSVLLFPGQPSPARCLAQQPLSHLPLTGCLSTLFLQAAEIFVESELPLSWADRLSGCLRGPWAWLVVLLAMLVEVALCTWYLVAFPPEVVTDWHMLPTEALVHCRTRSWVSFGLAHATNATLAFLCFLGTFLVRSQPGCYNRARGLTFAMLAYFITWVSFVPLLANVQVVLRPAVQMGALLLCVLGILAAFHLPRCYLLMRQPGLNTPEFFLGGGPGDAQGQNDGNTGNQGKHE

[5] = target: T3, hTAS1R2-VFT-D278A (Homo sapiens, UniProt Q8TE23, D278A); assay: Intrinsic tryptophan fluorescence ligand binding, mutant D278A; settings: Table 2, read-out: Apparent Kd hTAS1R2-VFT-D278A
T3 construct: followed by hTAS1R2-VFT (Ala22-Ser493) and another His6-tag at the C-terminus; His6 (thrombin-cleavable) (N); made in house
T3 sequence (Q8TE23 22-493 D278A): T1 sequence (Q8TE23 22-493) with D257A
From the text: To further confirm that the binding is specific, we performed mutagenesis studies on hTAS1R2-VFT. […] We performed ligand-binding titration assays in the same way as for hTAS1R2-VFT for the two point mutants.
Figure 5 Titration curves of hTAS1R2-VFT-D278A (blue triangles) and hTAS1R2-VFT (black circles) with sucralose (A) and aspartame (B). Circles and triangles show experimental data, while the solid lines are the computed binding curves. Wild-type receptor dose–responses are the same as for Figure 4. Data points correspond to the means ± SEMs of at least 12 independent replicates of at least three independently refolded protein samples.
All measurements were conducted at 20 °C using a Cary Eclipse spectrofluorimeter (Agilent Technologies, Santa Clara, CA, USA) equipped with a Peltier temperature control unit with a 5 nm bandwidth for emission and excitation. Ligand binding experiments with 0.5 µM hTAS1R2-VFTs were performed in buffer composed of 50 mM Tris-HCl pH 8, 150 mM NaCl, 0.5 mM DDM and 1 mM DTT. The intrinsic fluorescence of hTAS1R2-VFTs was measured at an excitation wavelength of 295 nm, and emission spectra were recorded from 320 to 380 nm. Fluorescence emission values were collected at 340 nm wavelength in the presence and absence of sweet ligands. […] Fluorescence measurements were corrected for bleaching, dilution and nonspecific buffer quenching. […]

[6] = tested on: full-length hTAS1R2/hTAS1R3 receptor D278A; parameters: method as in PMID 22536376; settings: cellular-based assay; cited from earlier work
[7] = target: T2, human TAS1R2/TAS1R3 receptor; assay: Cellular-based assay of the sweet taste receptor (EC50); type: cell-based
From the text: We determined its affinity constants for natural sugars using dose–response curves.

[8] = target: human TAS1R3-VFT; parameters: method as in PMID 22450161; settings: cited from earlier work
[9] = Table 1, intrinsic fluorescence, 0.5 µM protein, 20 °C, pH 8, read-out: hTAS1R2-VFT (Kd)
[10] = in water equivalent to 5% sucrose, ref Shallenberger, 1993
[11] = in water equivalent to 2% sucrose, ref Schiffman and Gatlin, 1993
[12] = in water equivalent to 2% sucrose, ref Bassoli et al., 2002

Row | Structure (SMILES) | Kd [1, 9] [µM] | Sweetness Potency [2, 11] | also measured
1 | OC[C@H]1O[C@@H](O[C@H]2[C@H](O)[C@@H](O)C(O)O[C@@H]2CO)[C@H](O)[C@@H](O)[C@H]1O (mixture of isomers) [Lactose] | > 70000 | – | Sweetness Potency [2, 10]: 0.3 ^f
2 | CC1=CC(=O)NS(=O)(=O)O1 [Acesulfame-K] | 0.9 ± 0.2 | 200 ^e | effect of E382A on the full-length receptor response [3]: abolishes
3 | C[C@@H](NC(=O)[C@@H](N)CC(=O)O)C(=O)NC1C(C)(C)SC1(C)C [Alitame] | 0.15 ± 0.03 | 4500 ^e | EC50 ([4]; ref unpublished data obtained from collaborators): 13.8 ± 0.3 µM
4 | COC(=O)[C@H](Cc1ccccc1)NC(=O)[C@@H](N)CC(=O)O [Aspartame] (H-Asp-Phe-OMe) | 17.2 ± 3.1 | 250 ^e | Kd [5]: 223 ± 27.7 µM; EC50 ([4]; ref Masuda et al., 2012): 75 ± 11 µM; effect of D278A on the full-length receptor response [6]: decrease the response
5 | O=S(=O)(O)NC1CCCCC1 [Cyclamate] | – | 26 ^e | –
6 | O=C(CO)[C@@H](O)[C@H](O)[C@H](O)CO [Fructose] | – | 0.7 ^e | Kd [1]: 900 ± 200 µM; EC50 [7]: 8 ± 4 mM
7 | OC[C@H]1OC(O)[C@H](O)[C@@H](O)[C@@H]1O (some centres unmarked) [Glucose] | 1500 ± 300 | – | Sweetness Potency [2, 10]: 0.6 ^f
8 | COC(=O)[C@H](Cc1ccccc1)NC(=O)[C@H](CC(=O)O)NCCC(C)(C)C [Neotame] | 0.09 ± 0.02 | – | Sweetness Potency [2, 12]: 11,000 ^g
9 | C=C(C)[C@@H]1CC=C(/C=N/O)CC1 [Perillartine] | – | – | EC50 ([4]; ref Belloir et al., 2021): 2.54 ± 0.48 µM; Sweetness Potency [2, 12]: 1000 ^g
10 | O=C1NS(=O)(=O)c2ccccc21 [Saccharin] | – | 500 ^e | –
11 | OC[C@H]1O[C@H](O[C@]2(CCl)O[C@H](CCl)[C@@H](O)[C@@H]2O)[C@H](O)[C@@H](O)[C@H]1Cl [Sucralose] | 7 ± 1.3 | 600 ^e | binding affinity for human TAS1R3-VFT [8]: millimolar range; effect of D278A on the full-length receptor response [6]: abolish the response; effect of E382A on the full-length receptor response [3]: reduces
12 | OC[C@H]1O[C@@](CO)(O[C@H]2O[C@H](CO)[C@@H](O)[C@H](O)[C@H]2O)[C@@H](O)[C@@H]1O [Sucrose] | 4200 ± 900 | 1 ^e | EC50 ([7]; cellular assays, unpublished data from our laboratory, read-out: EC50): 11 ± 3 mM
